These are literature values, as cited in US20240108610A1, “RECTAL ADMINISTRATION OF ROFLUMILAST FOR THE TREATMENT OF CROHN'S DISEASE” (King Abdulaziz University, priority 2022, published 2024).

Each structure is given as a SMILES string.

The conditions of data set [1]: oral; cited from earlier work.
Data set [2] has as its system ovalbumin-induced asthmatic mice. Particulars: inhaled; cited from earlier work.
For data set [3] the following is noted: oral; cited from earlier work. The source holds these as a separate data set.
The test system of data set [4] is DSS-induced ulcerative colitis. Particulars: 5 mg/kg, male Wistar rats, cited from earlier work.
Data set [5] concerns dextran sulphate sodium (DSS)-induced colitis. Particulars: oral, 1 or 5 mg·kg−1·day−1, mice; cited from earlier work.

In general, bioavailability refers to dose-corrected exposure relative to a reference, in per cent. Turning to `O=C(Nc1c(Cl)cncc1Cl)c1ccc(OC(F)F)c(OCC2CC2)c1` [roflumilast], the bioavailability in data set [1] is given as approximately 80%. Moreover, in data set [2], the “inflammation and histopathological changes” value is listed as “substantially improved”; the “numbers of neutrophils, eosinophils, and macrophages in the bronchoalveolar lavage fluid” value is “decreased”. The side effects result in data set [3] is “weight loss, headache, nausea, emesis, and diarrhea”. For the same compound, in data set [4] (compared with the DSS group), the colon length result is on record as “preserved”, the histological scores entry is listed as “improved”, the severity of colitis entry is on record as “diminished” and the weight loss entry is listed as “decreased”. Besides, in data set [4], the “colon concentrations of TNF-α and NO, MPO activity, and inducible nitric oxide synthase gene expression” value is “decreased”. Besides, in data set [5], the Colonic length result is “dose-dependently improved”; the “colonic TNF-α production” value is listed as “dose-dependently improved”; the “disease clinical score (weight loss, stool consistency, and hemorrhage)” value was “dose-dependently improved”; the histological score result is “not improved”.
